Experimental findings from PubChem BioAssay (NCI) are described below.

Where “and” joins values, the source holds several entries; their conditions need not be identical. Equal entries are not always repeated.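 All cell lines were grown in 96-well plates and treated with compound for 48 hours. GI50 = concentration required for 50% inhibition of growth. TGI denotes the concentration required for complete inhibition of growth.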 Where a SMILES comes first, the peptide text is derived from it. The star is where a group is joined. Boc = CC(C)(C)OC(=O)*

Some test systems named below: MDA-N; PC-3 prostate; SW-620 colon; SNB-19 CNS; MCF7 breast; NCI-H226 lung; IGROV1 ovarian; KM12 colon; MDA-MB-231 breast; HS 578T breast; HL-60(TB) leukemia; OVCAR-4 ovarian; ACHN renal; SF-295 CNS.
Common to all, as to assay: NCI-60 cell line screen, 48 h

As for `O=C(O)CN(CCNC(=O)OCC1c2ccccc2-c2ccccc21)CCNC(=O)OCC1c2ccccc2-c2ccccc21`, the TGI in the test with MDA-N is 36.7 µM; in the test with PC-3 prostate, 49 µM; in the test with SW-620 colon, 42.3 µM; in the test with SNB-19 CNS, 73.4 µM; in the test on MCF7 breast it was 40.2 µM; in the test on NCI-H226 lung it was 81.2 µM. Moreover, the TGI in the test with IGROV1 ovarian is 45.7 µM; with KM12 colon, 34.7 µM; with MDA-MB-231 breast, 31.9 µM; in the test with HS 578T breast it was > 100 µM; with HL-60(TB) leukemia, 50.1 µM; in the test with OVCAR-4 ovarian, 64.4 µM. Moreover, the figures for the TGI with ACHN renal and with SF-295 CNS were 35.1 µM and 54.7 µM, respectively.
Turning to `C[N+]1=C2[B-](C(C)(C)C)=[N+](C(C)(C)C)[B-]2(C(C)(C)C)[N+](C)=C2[B-](C(C)(C)C)=[N+](C(C)(C)C)[B-]21C(C)(C)C` (stereo not given), the TGI in the test on MDA-N, in the test with PC-3 prostate, with SW-620 colon, in the test on SNB-19 CNS, in the test on MCF7 breast and with NCI-H226 lung was > 100 µM each time. The TGI in the test on IGROV1 ovarian, in the test with KM12 colon, in the test with MDA-MB-231 breast, in the test with HS 578T breast, in the test on HL-60(TB) leukemia and in the test on OVCAR-4 ovarian was > 100 µM each time. Further, the TGI with ACHN renal and in the test with SF-295 CNS was > 100 µM throughout.
Regarding `CN1C(=O)N(c2ccccc2)C2(CCN(CC3COc4ccccc4O3)CC2)C1=O` (stereo not given), the TGI was > 100 µM in the test on MDA-N; > 100 µM in the test on PC-3 prostate; 36.4 µM in the test on SW-620 colon; 56.6 µM in the test with SNB-19 CNS; > 100 µM in the test on MCF7 breast; > 100 µM in the test on NCI-H226 lung. Also, the TGI in the test on IGROV1 ovarian, in the test on KM12 colon, in the test on MDA-MB-231 breast, in the test on HS 578T breast, in the test on HL-60(TB) leukemia and in the test with OVCAR-4 ovarian was > 100 µM each time. The TGI in the test on ACHN renal and in the test on SF-295 CNS was > 100 µM throughout.
Consider `COc1cc(-c2cc(=O)c3cc4c(cc3[nH]2)OCO4)cc(OC)c1O`, for which the TGI in the test with MDA-N, in the test with PC-3 prostate, in the test with SW-620 colon, in the test on SNB-19 CNS, with MCF7 breast and with NCI-H226 lung was > 10 µM throughout. For the same compound, the TGI in the test with IGROV1 ovarian, in the test on KM12 colon, in the test on MDA-MB-231 breast, in the test with HS 578T breast, in the test on HL-60(TB) leukemia and with OVCAR-4 ovarian was > 10 µM throughout. The TGI in the test on ACHN renal and in the test on SF-295 CNS was > 10 µM throughout.
Consider `COC(=O)CNC(=O)C(Cc1ccccc1)NC(=O)C(CCSC)NC(=O)C(Cc1ccc(O)cc1)NC(=O)OC(C)(C)C` (stereo not given) (Boc-YMFG-OMe; configuration not given here), for which the TGI in the test with MDA-N, in the test with PC-3 prostate, in the test with SW-620 colon, in the test on SNB-19 CNS, in the test with MCF7 breast and with NCI-H226 lung was > 100 µM in each case. Further, the TGI with IGROV1 ovarian is > 100 µM; with KM12 colon it was > 100 µM; in the test on MDA-MB-231 breast it was 52.8 µM; with HS 578T breast, > 100 µM; in the test on HL-60(TB) leukemia, > 100 µM; in the test with OVCAR-4 ovarian, > 100 µM. For the same compound, the TGI in the test on ACHN renal and with SF-295 CNS was > 100 µM in each case.
`CC(=O)OCC1OC(OC(C)(C)CC/C=C(\C)[C@@H]2C/C=C(\C)CC/C=C(\C)CC2)C(O)C(O)C1OC(C)=O` (stereo not given in full): the TGI with MDA-N was > 61.4 µM and 41.5 µM; in the test with PC-3 prostate, > 94.8 µM and 25.8 µM; with SW-620 colon, > 31.6 µM and 50.7 µM; in the test with SNB-19 CNS, > 100 µM and 25 µM; in the test on MCF7 breast, > 100 µM and 64.8 µM; in the test on NCI-H226 lung, > 100 µM and 16.2 µM. The TGI was > 79.1 µM and 32 µM in the test on IGROV1 ovarian; > 59.7 µM and 36.8 µM in the test on KM12 colon; > 100 µM and 38.6 µM in the test on MDA-MB-231 breast; 30.5 µM in the test on HS 578T breast; 67.3 µM in the test with HL-60(TB) leukemia; > 100 µM and 32.1 µM in the test with OVCAR-4 ovarian. In addition, the TGI was > 100 µM and 26.7 µM in the test on ACHN renal; > 100 µM and 42.4 µM in the test on SF-295 CNS. The GI50 in the test with PC-3 prostate is 35.8 µM and 13.1 µM; in the test on SNB-19 CNS, 61.5 µM and 12.5 µM; in the test on MCF7 breast, 52 µM and 23.9 µM; in the test with MDA-MB-231 breast, > 61.2 µM and 18.9 µM; in the test on OVCAR-4 ovarian it was > 58.7 µM and 16.2 µM; with ACHN renal it was > 65.1 µM and 13.8 µM.
Take `CC1=C2C(=O)NN=C2CCN1c1ccc(Br)cc1`: the TGI in the test with MDA-N, with PC-3 prostate, with SW-620 colon, with SNB-19 CNS, in the test on MCF7 breast and in the test on NCI-H226 lung was > 100 µM each time. Besides, the TGI in the test with IGROV1 ovarian, in the test on KM12 colon, with MDA-MB-231 breast, with HS 578T breast, in the test with HL-60(TB) leukemia and in the test on OVCAR-4 ovarian was > 100 µM in each case. Moreover, the TGI in the test on ACHN renal and in the test with SF-295 CNS was > 100 µM each time.
Consider `CCCCCCCCCCCCCCCCCCNc1ccn(C2OC(COP(=O)(O)OCC3OC(n4ccc(NC(=O)CCCCCCCCCCCCCCCCC)nc4=O)C(OC(C)=O)C3OC(C)=O)C(OC(C)=O)C2OC(C)=O)c(=O)n1` (stereo not given), for which the TGI in the test with MDA-N, in the test with PC-3 prostate, in the test on SW-620 colon, in the test with SNB-19 CNS, in the test on MCF7 breast and with NCI-H226 lung was > 100 µM throughout. For the same compound, the TGI in the test on IGROV1 ovarian, in the test with KM12 colon, with MDA-MB-231 breast, with HS 578T breast, in the test with HL-60(TB) leukemia and in the test with OVCAR-4 ovarian was > 100 µM in each case. In addition, the TGI in the test with ACHN renal and in the test with SF-295 CNS was > 100 µM in each case.
As to `COc1ccccc1Nc1nc(N)nc(N)c1N=O`, the TGI in the test on MDA-N, in the test on PC-3 prostate, in the test on SW-620 colon, in the test with SNB-19 CNS, in the test on MCF7 breast and in the test with NCI-H226 lung was > 100 µM in each case. For the same compound, the TGI in the test with IGROV1 ovarian, with KM12 colon, in the test on MDA-MB-231 breast, in the test with HS 578T breast, with HL-60(TB) leukemia and in the test on OVCAR-4 ovarian was > 100 µM each time. Further, the TGI in the test with ACHN renal and with SF-295 CNS was > 100 µM in each case.
Turning to `O=C(/C=C/c1ccc(O)c([N+](=O)[O-])c1)CC(=O)/C=C/c1ccc(O)c([N+](=O)[O-])c1`, the TGI in the test on MDA-N, with PC-3 prostate, in the test on SW-620 colon, in the test on SNB-19 CNS, in the test on MCF7 breast and with NCI-H226 lung was > 100 µM in each case. In addition, the TGI is 76.4 µM with IGROV1 ovarian; 97.6 µM with KM12 colon; 68 µM in the test on MDA-MB-231 breast; > 100 µM with HS 578T breast; 44.6 µM with HL-60(TB) leukemia; > 100 µM with OVCAR-4 ovarian. Further, the TGI in the test with ACHN renal and with SF-295 CNS was > 100 µM throughout.
With `CC(C)=CCOC(=O)C(C)=[N+]=[N-]`, the TGI with MDA-N, in the test with PC-3 prostate, with SW-620 colon, in the test with SNB-19 CNS, in the test with MCF7 breast and in the test on NCI-H226 lung was > 100 µM each time. Moreover, the TGI in the test on IGROV1 ovarian, in the test on KM12 colon, in the test with MDA-MB-231 breast, in the test on HS 578T breast, with HL-60(TB) leukemia and in the test on OVCAR-4 ovarian was > 100 µM throughout. Besides, the TGI with ACHN renal and with SF-295 CNS was > 100 µM in each case.
`Cc1c(-c2nc3ccccc3[nH]2)c(=O)n(-c2ccccc2)n1C`: the TGI with MDA-N, in the test with PC-3 prostate, in the test on SW-620 colon, in the test on SNB-19 CNS, with MCF7 breast and in the test on NCI-H226 lung was > 100 µM each time. For the same compound, the TGI in the test with IGROV1 ovarian, in the test with KM12 colon, in the test with MDA-MB-231 breast, with HS 578T breast, in the test with HL-60(TB) leukemia and with OVCAR-4 ovarian was > 100 µM in each case. Further, the TGI with ACHN renal and in the test with SF-295 CNS was > 100 µM in each case.
For `CCN1CC2=C(NC(=S)NC2c2ccc(Cl)cc2)/C(=C/c2ccc(Cl)cc2)C1` (stereo not given), the TGI in the test with MDA-N, in the test with PC-3 prostate, in the test on SW-620 colon, in the test with SNB-19 CNS, with MCF7 breast and in the test on NCI-H226 lung was > 100 µM each time. Moreover, the TGI with IGROV1 ovarian, with KM12 colon, with MDA-MB-231 breast, in the test on HS 578T breast, in the test on HL-60(TB) leukemia and with OVCAR-4 ovarian was > 100 µM throughout. Further, the TGI with ACHN renal and in the test on SF-295 CNS was > 100 µM in each case.
Take `C=C1CC(COc2cc(=O)oc3ccccc23)(c2ccccc2)OC1=O` (stereo not given): the TGI in the test with MDA-N was 5.57 µM; in the test with PC-3 prostate, 5.9 µM; in the test on SW-620 colon, 3.35 µM; in the test on SNB-19 CNS it was 37.3 µM; in the test on MCF7 breast, 2.14 µM; in the test on NCI-H226 lung, 19.3 µM. The TGI stood at 3.07 µM with IGROV1 ovarian; 12.7 µM in the test on KM12 colon; 11.9 µM in the test on MDA-MB-231 breast; 27.5 µM in the test with HS 578T breast; 6.34 µM in the test on HL-60(TB) leukemia; 4.64 µM in the test on OVCAR-4 ovarian. Also, the TGI stood at 4.54 µM in the test with ACHN renal and 22.7 µM in the test with SF-295 CNS.
In the case of `CCCCN1C(=O)CC2[C@@H]3CCc4cc(OC(C)=O)ccc4C3CC[C@]2(C)C1=O` (stereo not given in full), the TGI in the test with MDA-N, in the test with PC-3 prostate, in the test with SW-620 colon, in the test with SNB-19 CNS, in the test with MCF7 breast and in the test with NCI-H226 lung was > 10 µM in each case. The TGI with IGROV1 ovarian, with KM12 colon, with MDA-MB-231 breast, in the test on HS 578T breast, with HL-60(TB) leukemia and with OVCAR-4 ovarian was > 10 µM in each case. For the same compound, the TGI in the test on ACHN renal and with SF-295 CNS was > 10 µM throughout.
For the compound `O=c1nc(N2CCN(c3ccccc3)CC2)ccn1C1OC(CO)C(O)C1O` (stereo not given), the TGI in the test on MDA-N, in the test with PC-3 prostate, with SW-620 colon, with SNB-19 CNS, with MCF7 breast and with NCI-H226 lung was > 100 µM each time. In addition, the TGI in the test on IGROV1 ovarian is > 100 µM; in the test with KM12 colon it was > 100 µM; in the test with MDA-MB-231 breast, > 100 µM; in the test with HS 578T breast it was > 100 µM; with HL-60(TB) leukemia it was 63.5 µM; with OVCAR-4 ovarian it was > 100 µM. Besides, the TGI with ACHN renal and in the test with SF-295 CNS was > 100 µM in each case.
